In article PMC6934184, “Selective DNA-PKcs inhibition extends the therapeutic index of localized radiotherapy and chemotherapy” (The Journal of Clinical Investigation, 2019) one finds inhibition data, which are given here for 1 molecule.

The test has as its target T1, AMPK (A1/B1/G3) (Homo sapiens, UniProt Q13131).
T1 construct: purchased Thermo Fisher Scientific (Life Technologies) SelectScreen
Kind of test: SelectScreen LanthaScreen. It counts as binding. To be noted: read-out: % displacement. The method in brief:
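SelectScreen broad panel; activity (Z'LYTE, Adapta) plus binding formats. ATP: Km app for CSF1R Z'LYTE; 10 for CAMK1 Adapta. Readout = % per kinase.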

T1 sequence (Q13131 whole entry): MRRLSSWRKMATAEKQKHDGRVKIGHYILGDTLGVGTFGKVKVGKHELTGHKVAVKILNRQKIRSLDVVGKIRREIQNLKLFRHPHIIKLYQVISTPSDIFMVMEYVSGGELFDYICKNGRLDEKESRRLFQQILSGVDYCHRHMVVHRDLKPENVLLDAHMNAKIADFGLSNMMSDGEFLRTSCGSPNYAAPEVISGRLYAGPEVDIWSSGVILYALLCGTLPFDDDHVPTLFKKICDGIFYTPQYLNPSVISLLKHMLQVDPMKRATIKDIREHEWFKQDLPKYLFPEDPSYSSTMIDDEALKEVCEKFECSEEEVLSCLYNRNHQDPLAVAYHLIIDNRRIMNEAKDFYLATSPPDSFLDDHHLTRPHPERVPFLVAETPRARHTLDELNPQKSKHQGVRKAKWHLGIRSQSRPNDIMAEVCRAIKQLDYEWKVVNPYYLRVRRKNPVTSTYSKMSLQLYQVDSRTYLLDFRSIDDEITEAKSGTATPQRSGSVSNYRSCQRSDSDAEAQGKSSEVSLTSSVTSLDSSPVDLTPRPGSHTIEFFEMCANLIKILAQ
T1 sequence (Q9Y478 whole entry partner): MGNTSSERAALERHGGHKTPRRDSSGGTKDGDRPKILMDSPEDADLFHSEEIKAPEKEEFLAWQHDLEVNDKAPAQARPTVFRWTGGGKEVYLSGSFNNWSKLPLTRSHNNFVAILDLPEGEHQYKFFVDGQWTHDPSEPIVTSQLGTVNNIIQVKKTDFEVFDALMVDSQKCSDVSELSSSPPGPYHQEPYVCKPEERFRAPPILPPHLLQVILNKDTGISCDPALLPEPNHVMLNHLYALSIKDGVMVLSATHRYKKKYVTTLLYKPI
T1 sequence (Q9UGI9 whole entry partner): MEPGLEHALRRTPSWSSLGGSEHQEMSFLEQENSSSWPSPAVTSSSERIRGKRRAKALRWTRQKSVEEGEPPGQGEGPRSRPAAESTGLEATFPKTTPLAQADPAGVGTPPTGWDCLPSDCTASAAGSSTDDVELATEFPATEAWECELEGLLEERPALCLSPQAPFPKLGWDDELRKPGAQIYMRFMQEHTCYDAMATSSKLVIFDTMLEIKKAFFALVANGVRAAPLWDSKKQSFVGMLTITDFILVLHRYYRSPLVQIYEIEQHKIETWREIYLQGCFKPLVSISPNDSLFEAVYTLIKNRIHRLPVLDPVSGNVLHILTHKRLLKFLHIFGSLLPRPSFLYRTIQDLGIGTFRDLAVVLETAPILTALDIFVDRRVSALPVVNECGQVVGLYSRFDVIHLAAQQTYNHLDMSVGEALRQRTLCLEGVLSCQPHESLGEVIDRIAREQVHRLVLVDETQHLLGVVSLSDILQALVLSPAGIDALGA

Regarding `CN(C(=O)CN1CCOCC1)c1ccc2sc3c(-c4cccc5c(=O)cc(N6CC7CCC(C6)O7)oc45)cccc3c2c1` [NU5455], the inhibition at 1 µM came out at 0.2%.
